{
  "source": "paper PMC12232376",
  "about": "“A Lysozyme-Derived Peptide Induces GLP‑1 Secretion in Mouse Jejunal Organoids and Modulates Glycemia in Rats” (Journal of Agricultural and Food Chemistry, 2025)",
  "key": {"[1]": {"test_system": "mouse intestinal organoids", "description": "On the day of the experiment, the medium was discarded, and the Matrigel was removed with cold PBS. Next, the organoids were centrifuged for 3 min at 300 × g, the medium was discarded, and after three washes, the organoids were resuspended in saline buffer (20 mM HEPES 1 M, 1 mM glucose, 140 mM NaCl, 4.5 mM KCl, 1.2 mM CaCl2, 1.2 mM MgCl2, 0.1% BSA, pH 7.4). The organoids were incubated for 40 min at 37 °C in this buffer. These organoids were resuspended in a new saline buffer and transferred to 96-well plates at a 60 organoids per well-ratio. The samples (EWD at 2 mg/mL, Phe at 20 mM, and synthetic peptide at 1 mM) were diluted in saline buffer, added to the well, and assayed in triplicate. […] After 10, 30, and 60 min, the plate was centrifuged for 3 min at 300 × g, supernatants were collected, organoids were lysed with QIAzol (Qiagen, Hilden, Germany), and samples were stored at −80 °C for further analysis.\nThe percentage of each sequence was calculated relative to the total area in each sample."}, "PYY gene expression [2]": {"test_system": "PYY gene expression", "assay": "Relative PYY gene expression in STC-1 cells (qPCR)", "format": "cell-based", "settings": "60 min, Phe 20 mM", "method": "(§1) Cells were cultured at 37 °C, 5% CO2, and a humidified atmosphere for 48 h into 24-well plates at a density of 3 × 10^5 cells per well.\n(§2) For RNA isolation, frozen STC-1 cells or organoids were homogenized in QIAzol, and total RNA was isolated using the miRNeasy Mini Kit (Qiagen, Hilden, Germany). Total RNA was quantified in a NanoDrop 2000 spectrophotometer (Thermo Scientific, MA, USA). According to the instructions, total RNA was reverse transcribed to cDNA using a Script II RT Kit (Qiagen, Hilden, Germany). RNA expression levels were determined in duplicate by quantitative real-time PCR (qPCR) on a 7900HT Real-Time PCR System (Applied Biosystems), using miScript SYBR Green PCR Kits (Qiagen, Hilden, Germany).\n(§3) Amplification was initiated at 50 °C for 2 min and at 95 °C for 10 min, followed by 40 cycles of 95 °C for 15 s and 60 °C for 1 min. The following specific oligonucleotides were used: for cholecystokinin (CCK) forward (F) 5′-[…]-3′ and reverse (R) 5′-[…]-3′; for GLP-1 (F) 5′-[…]-3′ and (R) 5′-[…]-3′; for peptide YY (PYY) (F) 5′-[…]-3′ and (R) 5′-[…]-3′; and for reference gene β-actin (F) 5′-[…]-3′ and (R) 5′-[…]-3′. The relative expression levels of the target gene were calculated using the comparative critical threshold method (2^–ΔΔCt), by normalizing the data to the expression of β-actin."}, "PYY gene expression [3]": {"test_system": "PYY gene expression", "assay": "Relative PYY gene expression in organoids (qPCR)", "format": "cell-based, mouse", "settings": "organoids, 10, 30, 60 min; EWD 2 mg/mL, Phe 20 mM, peptide 1 mM", "method": "as §2, §3"}, "CCK gene expression [4]": {"test_system": "CCK gene expression", "assay": "Relative CCK gene expression in STC-1 cells (qPCR)", "format": "cell-based", "settings": "60 min, Phe 20 mM", "method": "as §1, §2, §3"}, "STC-1 cells [5]": {"test_system": "STC-1 cells", "assay": "GLP-1 secretion in STC-1 cells (GLP-1 Active ELISA of supernatants)", "format": "cell-based", "settings": "Phe 20 mM, peptide 1 mM, n = 3", "method": "STC-1 cells supplied by ATCC (ATCC CRL-3254, Manassas, VA, USA) were cultured in Dulbecco’s Modified Eagle’s Medium (ATCC, Manassas, VA, USA) supplemented with 100 U/mL penicillin, 100 mg/L streptomycin, 0.25 μg/mL amphotericin (Lonza Group, Basel, Switzerland), and 10% fetal bovine serum (ATCC, Manassas, VA, USA). Cells were incubated at 37 °C in a 5% CO2 humidified atmosphere, and once they reached 80% confluence, they were trypsinized and seeded according to each cell study. The experiments were performed from passage numbers 31–35.\nas §1\n(§4) After hormonal secretion studies, GLP-1_7–36NH2 was measured in the supernatants of cells or organoids in duplicate with the commercial immunoassay Glucagon-Like Peptide-1 Active ELISA (Merck KGaA, Darmstadt, Germany), according to the manufacturer’s instructions."}, "mouse jejunal organoids": {"test_system": "mouse jejunal organoids", "assay": "GLP-1 secretion in mouse jejunal organoids (GLP-1 Active ELISA of supernatants)", "format": "cell-based", "settings": "Phe 20 mM, peptide 1 mM, n = 3", "method": "Mouse intestinal organoids (enteroids) were derived from adult intestinal stem cells (ISCs). Intestinal crypts were isolated from the jejunum of male and female wild-type mice following the protocol provided by STEMCELL Technologies. Crypts were cultured at 37 °C until organoids were fully developed (5–7 days). Intestinal organoids were suspended in 10 mL of cold DMEM/F12 (Lonza, Basel, Switzerland), and the crypts were suspended in a mixture (50:50) of Matrigel (Corning, NY, USA) and complete IntestiCult Organoid Growth Medium (STEMCELL Technologies, Vancouver, Canada). This mix was gently placed in the center of each well of a prewarmed 24-well plate until the Matrigel solidified and formed a dome. IntestiCult Organoid Growth Medium (STEMCELL Technologies, Vancouver, Canada) was added, and crypts were cultured at 37 °C and 5% CO2 until organoids were developed. After 7 days, the mouse intestinal organoids were passed following the STEMCELL Technologies protocol. The experiments were performed from passage numbers 1 to 6.\nas §4"}, "CCK gene expression [6]": {"test_system": "CCK gene expression", "assay": "Relative CCK gene expression in organoids (qPCR)", "format": "cell-based, mouse", "settings": "peptide 1 mM (induced at 60 min), Phe 20 mM (induced from 30 min), versus control", "method": "as §2, §3"}, "p-IRS": {"test_system": "p-IRS", "assay": "Immunoblotting p-IRS/IRS in STC-1 cells", "format": "cell-based", "settings": "peptide 1 mM, EWD 2 mg/mL, Phe 20 mM, 5, 15, 30, 60 min, immunoblot", "method": "[…]; then, cells were lysed with RIPA buffer, and ERK1/2, p-ERK1/2, AMPK, p-AMPK, p-IRS-1, IRS-1, glyceraldehyde-3-phosphate dehydrogenase (GAPDH), and heat shock protein (HSP90) contents were examined using immunoblotting. Protein samples were lysed, separated on 10% SDS-polyacrylamide gels, and the separated proteins were electroblotted from the gel onto nitrocellulose membranes ([…], Millipore, MA, USA) and blocked with skim milk for 30 min at room temperature. Membranes were incubated with primary antibodies overnight at 4 °C. After incubation, membranes were exposed to secondary antibodies for 45 min at room temperature. Blots were rinsed three times with Tris-buffered saline with Tween 20, pH 8.0, after each incubation step and visualized using an Odyssey infrared imaging system (LI-COR, Lincoln, NE, USA)."}, "[7]": {"test_system": "proglucagon gene expression", "assay": "Relative proglucagon gene expression in organoids (qPCR)", "format": "cell-based, mouse", "settings": "10 min, Phe 20 mM, 2^-ΔΔCt normalised to β-actin, versus control", "method": "as §2, §3"}, "STC-1 cells [8]": {"test_system": "STC-1 cells", "settings": "earlier screening in STC-1; ref authors' previous study (number not given); cited from earlier work", "method": "Later, other authors, using the enteroendocrine cell line STC-1, have related the GLP-1-inducing effect to peptides of molecular mass between […], and it was shown that peptides present a greater induc ... || There is little information about the structural features necessary to induce secretion by enteroendocrine cells of GLP-1. The organoid cellular media collected at 60 min were analyzed by HPLC–MS/MS in order to assess the possible proteolysis of the assayed peptides during the incubation. The small intestine brush border has different enzymes, oligopeptidases, lipases, and carbohydrases that contribute to nutrient hydrolysis and absorption. Other authors have described that enterocytes present in mouse intestinal organoids have mature brush borders, with the presence of their typical enzymes, ..."}},
  "note": "Where no end group is shown, it is not given here.",
  "data": [
    {"molecule": "WIRGARL [WIRGARL]", "values": [
      {"measurement": "Susceptibility to peptidases in organoids, in words", "setting": "[1]", "result": "most susceptible sequences to the action of peptidases"}
    ]},
    {"molecule": "N[C@@H](Cc1ccccc1)C(=O)O", "note": "[Phe, Phenylalanine]", "values": [
      {"measurement": "PYY gene overexpression", "setting": "PYY gene expression [2]", "result": 2, "unit": "fold"},
      {"measurement": "PYY gene expression versus control, in words", "setting": "PYY gene expression [3]", "result": "an effect of both the peptide and Phe was observed at 10 min, with Phe keeping the increased expression at 30 min"},
      {"measurement": "CCK gene overexpression", "setting": "CCK gene expression [4]", "result": 4, "unit": "fold"},
      {"measurement": "GLP-1 release in STC-1 cells versus control, in words", "setting": "STC-1 cells [5]; 10, 30 and 60 min, EWD 2 mg/mL", "result": "only reached significance after incubation with the peptide or Phe for 60 min"},
      {"measurement": "GLP-1 induced in STC-1 cells", "setting": "STC-1 cells [5]; HEPES buffer pH 7.4, time not printed at the place (60 min by b40), ELISA, mean ± SEM", "result": "416.6 ± 40.1", "unit": "pM"},
      {"measurement": "GLP-1 release in organoids versus control, in words", "setting": "mouse jejunal organoids; 10, 30 and 60 min, EWD 2 mg/mL", "result": "faster GLP-1 induction was observed in the case of Phe (10 min)"},
      {"measurement": "GLP-1 release in organoids", "setting": "mouse jejunal organoids; 60 min, 60 organoids per well in saline buffer pH 7.4, 37 °C, ELISA, mean ± SEM", "result": "43.7 ± 1", "unit": "pM"},
      {"measurement": "CCK gene expression, maximum fold change", "setting": "CCK gene expression [6]", "result": 2.8, "unit": "fold change"},
      {"measurement": "p-IRS expression versus control, in words", "setting": "p-IRS", "result": "p-IRS overexpression at all time points"},
      {"measurement": "Relative proglucagon gene expression", "setting": "[7]", "result": 1.8, "unit": "fold change"}
    ]},
    {"molecule": "WARGCRL [WARGCRL]", "values": [
      {"measurement": "Susceptibility to peptidases in organoids, in words", "setting": "[1]", "result": "most susceptible sequences to the action of peptidases"}
    ]},
    {"molecule": "IRGCRL [124IRGCRL129, hexapeptide, shorter form of 123WIRGCRL129 found in organoid supernatants]", "values": [
      {"measurement": "GLP-1 secretion in STC-1 cells, in words", "setting": "STC-1 cells [8]", "result": "induce GLP-1 in STC-1, although at lower levels than the tryptophan-containing precursor peptide"}
    ]},
    {"molecule": "WIRACRL [WIRACRL]", "values": [
      {"measurement": "Susceptibility to peptidases in organoids, in words", "setting": "[1]", "result": "most susceptible sequences to the action of peptidases"}
    ]}
  ]
}
